Experimental data reported in PubChem BioAssay AID652113 (The Scripps Research Institute Molecular Screening Center, 2013).

System: PAMPA artificial membrane permeability, LC-MS, 5 h
Assay: PubChem AID 652113
Details: hits give high values

Question: Which permeability does the source give for COC(=O)c1cc(Br)cnc1N1CCC(NC2CCCCC2)C(O)C1 (stereo unspecified) here?
Answer: The permeability was 16.5 ×10⁻⁶ cm/s.
